Reference: US20110257208A1, “COMPOUNDS USEFUL AS FAAH MODULATORS AND USES THEREOF” (priority 2008, published 2011)

biological target: T1, hFAAH (Homo sapiens, UniProt O00519); assay: Fluorimetric assay with hFAAH microsomes (enzymatic, fluorescence based); format: biochemical; conditions: compound at 1 uM, AA-AMC substrate
T1 construct: expressed in transfected cells; host or cells: HEK293-TRex (Invitrogen) stably transfected with hFAAH in the pcDNA5-Tet-off vector, or T84 human colon epithelial cells (endogenous hFAAH); used as a microsomal preparation
T1 sequence (O00519 1-579): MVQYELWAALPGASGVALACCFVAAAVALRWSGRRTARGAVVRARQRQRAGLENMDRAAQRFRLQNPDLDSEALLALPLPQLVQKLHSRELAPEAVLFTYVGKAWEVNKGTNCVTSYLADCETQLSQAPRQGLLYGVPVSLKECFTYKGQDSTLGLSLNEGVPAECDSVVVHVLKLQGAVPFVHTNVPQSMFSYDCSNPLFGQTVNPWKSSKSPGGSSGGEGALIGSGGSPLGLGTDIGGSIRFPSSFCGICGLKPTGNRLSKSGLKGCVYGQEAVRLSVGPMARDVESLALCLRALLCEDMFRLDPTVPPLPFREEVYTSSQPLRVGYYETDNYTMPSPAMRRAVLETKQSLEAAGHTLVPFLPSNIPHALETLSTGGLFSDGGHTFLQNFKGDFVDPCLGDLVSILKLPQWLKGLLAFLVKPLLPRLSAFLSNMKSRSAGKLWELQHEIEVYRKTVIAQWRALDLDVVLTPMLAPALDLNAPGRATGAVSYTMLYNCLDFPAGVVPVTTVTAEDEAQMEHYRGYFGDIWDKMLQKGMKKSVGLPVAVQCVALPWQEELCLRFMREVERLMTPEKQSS
Description: Human cell line T84 (human colon epithelial cells), which expresses endogenous hFAAH, or HEK293-TRex cells (Invitrogen) stably transfected with hFAAH in the pcDNA5-Tet-off vector are cultured in medium containing DMEM, 10% FBS penicillin/streptomycin, glutamax, 200 μg/ml hygromycin and 0.5 μg/ml blasticidin. Cell collection is done 24 h after induction with doxycycline by first washing the cells with cold PBS and then incubating them with Versene before centrifugation. Cell pellets are then stored at −80° C. until needed. For homogenization, the cell pellets are thawed on ice […] and resuspended in homogenization buffer (50 mM HEPES (pH 7.4), 1 mM EDTA, 1 μM Pepstatin A, 100 μM Leupeptin, 0.1 mg/mL aprotinin). Cell suspensions are then homogenized on ice using the Polytron 1200 C at setting 6 for three 30-second intervals with 30-second rests. The suspension is centrifuged at 1000 g for 10 minutes at 4° C. and the supernatant is collected and further centrifuged at 24000 rpm for 30 minutes at 4° C. using an ultracentrifuge. Pellets are resuspended by adding in cold microsomal buffer (50 mM HEPES (pH 7.4) and 1 mM EDTA) and sheared through a 23-gauge needle five times, keeping the suspension on ice. Protein concentrations are determined using the BCA assay and aliquoted preparations are stored at −80° C. until needed.
Compound potency against hFAAH is determined using an enzymatic assay with a fluorescence readout. Briefly, experiments were carried out in a 96-well plate format (Corning Costar, # 3370) with a total well volume of 160 μL with components added in the following order: assay buffer (50 mM HEPES (pH 7.4), 1 mM EDTA, 1.4 mg/mL BSA), compound solutions (7 different concentrations per compound in duplicate), microsomal enzyme preparation (10 μg per well) and substrate [AA-AMC (arachadonyl 7-amino 4-methyl coumarin amide), 2 μM]. After a brief shaking, a kinetic read of the plate is obtained using a Tecan Safire II in kinetic mode for 275 cycles with excitation and emission wavelengths of 355 and 460 nm, respectively. Raw data is then processed and analyzed using Assay Explorer and GraphPad Prism.
The following compounds have been or can be prepared according to the methods of the invention. An enzymatic (fluorescence based) assay is performed as described above. In Table 1, activity of each compound is expressed as follows: • ++++ % Inhibition >75% • +++ % Inhibition >50% • ++ % Inhibition >25% • + % Inhibition <25%

| inhibition at 1 µM | SMILES |
| --- | --- |
| > 50% | O=S(=O)(c1ccccc1Cl)N1Cc2ncnc(Nc3cnc4ccccc4c3)c2C1 [Compound 72, [6-(2-Chloro-benzenesulfonyl)-6,7-dihydro-5H-pyrrolo[3,4-d]pyrimidin-4-yl]-quinolin-3-yl-amine] |
| > 75% | CCc1nc(C)c(CN2Cc3ncnc(Nc4cnc5ccccc5c4)c3C2)s1 [Compound 97, [6-(2-Ethyl-4-methyl-thiazol-5-ylmethyl)-6,7-dihydro-5H-pyrrolo[3,4-d]pyrimidin-4-yl]-quinolin-3-yl-amine] |
| > 25% | c1ccc2ncc(Nc3ncnc4c3CN(C3CCCCCC3)C4)cc2c1 [Compound 40, (6-Cycloheptyl-6,7-dihydro-5H-pyrrolo[3,4-d]pyrimidin-4-yl)-quinolin-3-yl-amine] |
| < 25% | Cc1nc(C)c(NC(=O)N2Cc3ncnc(Nc4cnc5ccccc5c4)c3C2)s1 [Compound 51, 4-(Quinolin-3-ylamino)-5,7-dihydro-pyrrolo[3,4-d]pyrimidine-6-carboxylic acid (2,4-dimethyl-thiazol-5-yl)-amide] |
| > 50% | Cn1nccc1S(=O)(=O)N1Cc2ncnc(Nc3cnc4ccccc4c3)c2C1 [Compound 60, [6-(2-Methyl-2H-pyrazole-3-sulfonyl)-6,7-dihydro-5H-pyrrolo[3,4-d]pyrimidin-4-yl]-quinolin-3-yl-amine] |
| > 50% | Cc1nc(C)c(S(=O)(=O)N2Cc3ncnc(Nc4cnc5ccccc5c4)c3C2)s1 [Compound 61, [6-(2,4-Dimethyl-thiazole-5-sulfonyl)-6,7-dihydro-5H-pyrrolo[3,4-d]pyrimidin-4-yl]-quinolin-3-yl-amine] |
| > 75% | CCC(C)CN1Cc2ncnc(Nc3cnc4ccccc4c3)c2C1 (stereo not shown) [Compound 8, [6-(2-Methyl-butyl)-6,7-dihydro-5H-pyrrolo[3,4-d]pyrimidin-4-yl]-quinolin-3-yl-amine] |
| < 25% | FC(F)(F)CN1Cc2ncnc(Nc3cnc4ccccc4c3)c2C1 [Compound 30, Quinolin-3-yl-[6-(2,2,2-trifluoro-ethyl)-6,7-dihydro-5H-pyrrolo[3,4-d]pyrimidin-4-yl]-amine] |
| > 50% | CCCOc1ccccc1CN1Cc2ncnc(Nc3cnc4ccccc4c3)c2C1 [Compound 108, [6-(2-Propoxy-benzyl)-6,7-dihydro-5H-pyrrolo[3,4-d]pyrimidin-4-yl]-quinolin-3-yl-amine] |
| > 75% | c1ccc2ncc(Nc3ncnc4c3CN(CC3CCOCC3)C4)cc2c1 [Compound 33, Quinolin-3-yl-[6-(tetrahydro-pyran-4-ylmethyl)-6,7-dihydro-5H-pyrrolo[3,4-d]pyrimidin-4-yl]-amine] |
| > 25% | c1ccc2ncc(Nc3ncnc4c3CN(Cc3cncs3)C4)cc2c1 [Compound 81, Quinolin-3-yl-(6-thiazol-5-ylmethyl-6,7-dihydro-5H-pyrrolo[3,4-d]pyrimidin-4-yl)-amine] |
| > 75% | Fc1ccccc1CN1Cc2ncnc(Nc3cnc4ccccc4c3)c2C1 [Compound 80, [6-(2-Fluoro-benzyl)-6,7-dihydro-5H-pyrrolo[3,4-d]pyrimidin-4-yl]-quinolin-3-yl-amine] |
| > 25% | O=S(=O)(c1ccccc1OC(F)(F)F)N1Cc2ncnc(Nc3cnc4ccccc4c3)c2C1 [Compound 70, Quinolin-3-yl-[6-(2-trifluoromethoxy-benzenesulfonyl)-6,7-dihydro-5H-pyrrolo[3,4-d]pyrimidin-4-yl]-amine] |
| > 50% | c1ccc2ncc(Nc3ncnc4c3CN(CC3CCCOC3)C4)cc2c1 (stereo not shown) [Compound 16, Quinolin-3-yl-[6-(tetrahydro-pyran-3-ylmethyl)-6,7-dihydro-5H-pyrrolo[3,4-d]pyrimidin-4-yl]-amine] |
| > 75% | FC(F)Oc1ccccc1CN1Cc2ncnc(Nc3cnc4ccccc4c3)c2C1 [Compound 105, [6-(2-Difluoromethoxy-benzyl)-6,7-dihydro-5H-pyrrolo[3,4-d]pyrimidin-4-yl]-quinolin-3-yl-amine] |
| > 75% | FC(F)(F)c1ccccc1CN1Cc2ncnc(Nc3cnc4ccccc4c3)c2C1 [Compound 95, Quinolin-3-yl-[6-(2-trifluoromethyl-benzyl)-6,7-dihydro-5H-pyrrolo[3,4-d]pyrimidin-4-yl]-amine] |
| > 25% | c1ccc2ncc(Nc3ncnc4c3CN(Cc3nccs3)C4)cc2c1 [Compound 76, Quinolin-3-yl-(6-thiazol-2-ylmethyl-6,7-dihydro-5H-pyrrolo[3,4-d]pyrimidin-4-yl)-amine] |
| > 75% | CCOc1ccccc1CN1Cc2ncnc(Nc3cnc4ccccc4c3)c2C1 [Compound 100, [6-(2-Ethoxy-benzyl)-6,7-dihydro-5H-pyrrolo[3,4-d]pyrimidin-4-yl]-quinolin-3-yl-amine] |
| > 25% | O=S(=O)(c1ccccc1F)N1Cc2ncnc(Nc3cnc4ccccc4c3)c2C1 [Compound 71, [6-(2-Fluoro-benzenesulfonyl)-6,7-dihydro-5H-pyrrolo[3,4-d]pyrimidin-4-yl]-quinolin-3-yl-amine] |
| > 75% | CC(CN1Cc2ncnc(Nc3cnc4ccccc4c3)c2C1)c1ccccc1 (stereo not shown) [Compound 19, [6-(2-Phenyl-propyl)-6,7-dihydro-5H-pyrrolo[3,4-d]pyrimidin-4-yl]-quinolin-3-yl-amine] |
| > 50% | Cc1occc1CN1Cc2ncnc(Nc3cnc4ccccc4c3)c2C1 [Compound 96, [6-(2-Methyl-furan-3-ylmethyl)-6,7-dihydro-5H-pyrrolo[3,4-d]pyrimidin-4-yl]-quinolin-3-yl-amine] |
| > 75% | Cc1ccccc1S(=O)(=O)N1Cc2ncnc(Nc3cnc4ccccc4c3)c2C1 [Compound 59, Quinolin-3-yl-[6-(toluene-2-sulfonyl)-6,7-dihydro-5H-pyrrolo[3,4-d]pyrimidin-4-yl]-amine] |
| > 75% | FC(F)(F)Oc1ccccc1CN1Cc2ncnc(Nc3cnc4ccccc4c3)c2C1 [Compound 98, Quinolin-3-yl-[6-(2-trifluoromethoxy-benzyl)-6,7-dihydro-5H-pyrrolo[3,4-d]pyrimidin-4-yl]-amine] |
| > 25% | CC(C)(C)CN1Cc2ncnc(Nc3cnc4ccccc4c3)c2C1 [Compound 11, [6-(2,2-Dimethyl-propyl)-6,7-dihydro-5H-pyrrolo[3,4-d]pyrimidin-4-yl]-quinolin-3-yl-amine] |
| > 75% | c1ccc2ncc(Nc3ncnc4c3CN(Cc3ccncc3)C4)cc2c1 [Compound 94, (6-Pyridin-4-ylmethyl-6,7-dihydro-5H-pyrrolo[3,4-d]pyrimidin-4-yl)-quinolin-3-yl-amine] |
| > 75% | c1ccc2ncc(Nc3ncnc4c3CN(CC3CCCC3)C4)cc2c1 [Compound 12, (6-Cyclopentylmethyl-6,7-dihydro-5H-pyrrolo[3,4-d]pyrimidin-4-yl)-quinolin-3-yl-amine] |
| > 25% | c1ccc2ncc(Nc3ncnc4c3CN(Cc3cscn3)C4)cc2c1 [Compound 75, Quinolin-3-yl-(6-thiazol-4-ylmethyl-6,7-dihydro-5H-pyrrolo[3,4-d]pyrimidin-4-yl)-amine] |
| > 50% | Cc1ncc(CN2Cc3ncnc(Nc4cnc5ccccc5c4)c3C2)s1 [Compound 69, [6-(2-Methyl-thiazol-5-ylmethyl)-6,7-dihydro-5H-pyrrolo[3,4-d]pyrimidin-4-yl]-quinolin-3-yl-amine] |
